Consider four compounds from ChEMBL document CHEMBL4219271, “Synthesis and anti-proliferative activity of allogibberic acid derivatives containing 1,2,3-triazole pharmacophore” (Bioorg Med Chem Lett, 2018).

For test [1], the system named is SMMC-7721. As to the kind of experiment: Cytotoxicity against human SMMC7721 cells assessed as decrease in cell viability after 4 days by MTT assay. Type of test: functional, cell-based. The conditions noted are these: SMMC-7721, 96 h.
The test system of the next test is HL-60. Kind of test: Cytotoxicity against human HL60 cells assessed as decrease in cell viability after 4 days by MTT assay. The class given is functional, cell-based. Conditions: HL-60, 96 h.
The subject of test [2] is MCF7. Kind of test: Potency index, ratio of cisplatin IC50 to compound IC50 for human MCF7 cells. The class given is functional.
Another test relates to A549. Kind of test: Cytotoxicity against human A549 cells assessed as decrease in cell viability after 4 days by MTT assay. Type of test: functional, cell-based. The conditions noted are these: A549, 96 h. For orientation: Tetrazolium dyes change colour on reduction, which living cells bring about.
Test [3] relates to MCF7. Kind of test: Cytotoxicity against human MCF7 cells assessed as decrease in cell viability after 4 days by MTT assay. Type of test: functional, cell-based. Conditions: MCF7, 96 h.
Test [4] deals with SW480. As to the kind of experiment: Cytotoxicity against human SW480 cells assessed as decrease in cell viability after 4 days by MTT assay. The class given is functional, cell-based. The conditions noted are these: SW480, 96 h.
Test [5] concerns SMMC-7721. As to the kind of experiment: Induction of apoptosis in human SMMC7721 cells assessed as necrotic cells at 1.7 uM after 48 hrs by Annexin V-FITC/PI double staining based flow cytometry (reference value: 0%). Type of test: functional. For orientation: Flow cytometry measures light scatter and fluorescence of single cells or particles in a stream.
For test [6], the system named is SMMC-7721. As to the kind of experiment: Induction of apoptosis in human SMMC7721 cells assessed as viable cells at 0.85 uM after 48 hrs by Annexin V-FITC/PI double staining based flow cytometry (reference value: 100%). Type of test: functional. Conditions: SMMC-7721, 48 h, read-out: Activity.
Test [7] concerns SMMC-7721. Kind of test: Induction of apoptosis in human SMMC7721 cells assessed as necrotic cells at 0.85 uM after 48 hrs by Annexin V-FITC/PI double staining based flow cytometry (reference value: 0%). The class given is functional.
For test [8], the system named is SMMC-7721. Kind of test: Cell cycle arrest in human SMMC7721 cells assessed as accumulation at S phase at 1.7 uM after 24 hrs by propidium iodide staining based flow cytometry (reference value: 13.71 +/- 0.62%). The class given is functional.
The subject of test [9] is SMMC-7721. Kind of test: Induction of apoptosis in human SMMC7721 cells assessed as late apoptotic cells at 0.85 uM after 48 hrs by Annexin V-FITC/PI double staining based flow cytometry (reference value: 0%). The class given is functional.
Test [10] concerns SMMC-7721. Kind of test: Cell cycle arrest in human SMMC7721 cells assessed as accumulation at G2/M phase at 3.4 uM after 24 hrs by propidium iodide staining based flow cytometry (reference value: 5.72 +/- 0.59%). The class given is functional.
Test [11] has as its system SMMC-7721. As to the kind of experiment: Induction of apoptosis in human SMMC7721 cells assessed as early apoptotic cells at 0.425 uM after 48 hrs by Annexin V-FITC/PI double staining based flow cytometry (reference value: 0.035%). Type of test: functional.
For test [12], the system named is SMMC-7721. Kind of test: Cell cycle arrest in human SMMC7721 cells assessed as accumulation at G0/G1 phase at 0.85 uM after 24 hrs by propidium iodide staining based flow cytometry (reference value: 77.85 +/- 1.90%). The class given is functional.
For test [13], the system named is SMMC-7721. Kind of test: Cell cycle arrest in human SMMC7721 cells assessed as accumulation at G0/G1 phase at 0.425 uM after 24 hrs by propidium iodide staining based flow cytometry (reference value: 77.85 +/- 1.90%). The class given is functional.
Test [14] concerns SMMC-7721. As to the kind of experiment: Cell cycle arrest in human SMMC7721 cells assessed as accumulation at S phase at 3.4 uM after 24 hrs by propidium iodide staining based flow cytometry (reference value: 13.71 +/- 0.62%). The class given is functional.
The test system of test [15] is SW480. Kind of test: Potency index, ratio of cisplatin IC50 to compound IC50 for human SW480 cells. Type of test: functional.
Test [16] concerns SMMC-7721. As to the kind of experiment: Induction of apoptosis in human SMMC7721 cells assessed as late apoptotic cells at 3.4 uM after 48 hrs by Annexin V-FITC/PI double staining based flow cytometry (reference value: 0%). Type of test: functional.
The subject of test [17] is SMMC-7721. As to the kind of experiment: Induction of apoptosis in human SMMC7721 cells assessed as late apoptotic cells at 1.7 uM after 48 hrs by Annexin V-FITC/PI double staining based flow cytometry (reference value: 0%). The class given is functional.
Test [18] relates to SMMC-7721. Kind of test: Induction of apoptosis in human SMMC7721 cells assessed as necrotic cells at 0.425 uM after 48 hrs by Annexin V-FITC/PI double staining based flow cytometry (reference value: 0%). The class given is functional.
The subject of test [19] is SMMC-7721. As to the kind of experiment: Induction of apoptosis in human SMMC7721 cells assessed as early apoptotic cells at 1.7 uM after 48 hrs by Annexin V-FITC/PI double staining based flow cytometry (reference value: 0.035%). The class given is functional.
The subject of test [20] is SMMC-7721. Kind of test: Induction of apoptosis in human SMMC7721 cells assessed as late apoptotic cells at 0.425 uM after 48 hrs by Annexin V-FITC/PI double staining based flow cytometry (reference value: 0%). The class given is functional.
Test [21] concerns SMMC-7721. Kind of test: Cell cycle arrest in human SMMC7721 cells assessed as accumulation at G0/G1 phase at 3.4 uM after 24 hrs by propidium iodide staining based flow cytometry (reference value: 77.85 +/- 1.90%). The class given is functional.
Test [22] has as its system SMMC-7721. Kind of test: Cell cycle arrest in human SMMC7721 cells assessed as accumulation at G2/M phase at 0.85 uM after 24 hrs by propidium iodide staining based flow cytometry (reference value: 5.72 +/- 0.59%). The class given is functional.
For test [23], the system named is SMMC-7721. Kind of test: Induction of apoptosis in human SMMC7721 cells assessed as early apoptotic cells at 0.85 uM after 48 hrs by Annexin V-FITC/PI double staining based flow cytometry (reference value: 0.035%). The class given is functional.
Test [24] has as its system SMMC-7721. As to the kind of experiment: Cell cycle arrest in human SMMC7721 cells assessed as accumulation at S phase at 0.85 uM after 24 hrs by propidium iodide staining based flow cytometry (reference value: 13.71 +/- 0.62%). Type of test: functional.
In test [25] the test system is SMMC-7721. Kind of test: Cell cycle arrest in human SMMC7721 cells assessed as accumulation at S phase at 0.425 uM after 24 hrs by propidium iodide staining based flow cytometry (reference value: 13.71 +/- 0.62%). Type of test: functional.
Test [26] has as its system SMMC-7721. Kind of test: Cell cycle arrest in human SMMC7721 cells assessed as accumulation at G2/M phase at 1.7 uM after 24 hrs by propidium iodide staining based flow cytometry (reference value: 5.72 +/- 0.59%). The class given is functional.
Test [27] has as its system SMMC-7721. As to the kind of experiment: Induction of apoptosis in human SMMC7721 cells assessed as viable cells at 1.7 uM after 48 hrs by Annexin V-FITC/PI double staining based flow cytometry (reference value: 100%). The class given is functional. Conditions: SMMC-7721, 48 h, read-out: Activity.
For test [28], the system named is SMMC-7721. As to the kind of experiment: Induction of apoptosis in human SMMC7721 cells assessed as early apoptotic cells at 3.4 uM after 48 hrs by Annexin V-FITC/PI double staining based flow cytometry (reference value: 0.035%). The class given is functional.
Test [29] deals with SMMC-7721. As to the kind of experiment: Induction of apoptosis in human SMMC7721 cells assessed as viable cells at 3.4 uM after 48 hrs by Annexin V-FITC/PI double staining based flow cytometry (reference value: 100%). The conditions noted are these: SMMC-7721, 48 h, read-out: Activity. The class given is functional.
The subject of test [30] is SMMC-7721. Kind of test: Cell cycle arrest in human SMMC7721 cells assessed as accumulation at G0/G1 phase at 1.7 uM after 24 hrs by propidium iodide staining based flow cytometry (reference value: 77.85 +/- 1.90%). The class given is functional.
Test [31] deals with SMMC-7721. Kind of test: Induction of apoptosis in human SMMC7721 cells assessed as viable cells at 0.425 uM after 48 hrs by Annexin V-FITC/PI double staining based flow cytometry (reference value: 100%). Type of test: functional. The conditions noted are these: SMMC-7721, 48 h, read-out: Activity.
Test [32] concerns SMMC-7721. Kind of test: Induction of apoptosis in human SMMC7721 cells assessed as necrotic cells at 3.4 uM after 48 hrs by Annexin V-FITC/PI double staining based flow cytometry (reference value: 0%). Type of test: functional.
Test [33] concerns SMMC-7721. As to the kind of experiment: Cell cycle arrest in human SMMC7721 cells assessed as accumulation at G2/M phase at 0.425 uM after 24 hrs by propidium iodide staining based flow cytometry (reference value: 5.72 +/- 0.59%). Type of test: functional.
Test [34] has as its system SMMC-7721. As to the kind of experiment: Cell cycle arrest in human SMMC7721 cells assessed as accumulation at S phase after 24 hrs by propidium iodide staining based flow cytometry. The class given is functional.

In general, IC50 refers to the point on the concentration scale where inhibition reaches its midpoint. Take `C=C1C(=O)[C@]23C[C@@]1(O)CC[C@H]2c1ccc(OS(=O)(=O)c2ccc(C)cc2)c(C)c1[C@@H]3Cn1cc(-c2ccc(Br)cc2)nn1`: the IC50 was found to be 4320 nM with SMMC-7721 [1]; 1020 nM in the test on HL-60; 1630 nM with A549; 250 nM in the test on MCF7 [3]; 1590 nM in the test on SW480 [4]. The “Ratio IC50” value with MCF7 [2] was 46.
In the case of `C=C1C(=O)[C@]23C[C@@]1(O)CC[C@H]2c1ccc(OS(=O)(=O)c2ccc(C)cc2)c(C)c1[C@@H]3Cn1cc(-c2ccc(OC)cc2)nn1`, the IC50 came out at 1720 nM in the test with SMMC-7721 [1]; 1020 nM in the test with HL-60; 1470 nM in the test on A549; 310 nM in the test with MCF7 [3]; 1640 nM in the test with SW480 [4]. The “Ratio IC50” value with MCF7 [2] came out at 37.
As to `C=C1C(=O)[C@]23C[C@@]1(O)CC[C@H]2c1ccc(OS(=O)(=O)c2ccc(C)cc2)c(C)c1[C@@H]3Cn1cc(-c2ccccn2)nn1`, the IC50 in the test on SMMC-7721 [1] was 2830 nM; with HL-60, 1810 nM; in the test with A549 it was 2310 nM; in the test with MCF7 [3] it was 320 nM; in the test on SW480 [4], 1970 nM. For the same compound, in the test on MCF7 [2], the “Ratio IC50” value is 36.
As for `C=C1C(=O)[C@]23C[C@@]1(O)CC[C@H]2c1ccc(O)c(C)c1[C@@H]3Cn1cc(-c2ccc(F)cc2)nn1`, the Activity in the test with SMMC-7721 [5] worked out at 1.97%; in the test with SMMC-7721 [7], 1.72%; in the test with SMMC-7721 [8], 19.35%; in the test with SMMC-7721 [9], 10.7%; in the test on SMMC-7721 [10] it was 0.89%; in the test with SMMC-7721 [11] it was 3.31%. The Activity in the test on SMMC-7721 [12] was determined as 74.23%; with SMMC-7721 [13], 78.27%; with SMMC-7721 [14] it was 22.73%; with SMMC-7721 [16], 7.41%; with SMMC-7721 [17], 22.7%; in the test with SMMC-7721 [18], 3.14%. In addition, the Activity with SMMC-7721 [19] turned out to be 31.9%; with SMMC-7721 [20] it was 12.7%; in the test with SMMC-7721 [21] it was 71.54%; in the test with SMMC-7721 [22], 7.7%; with SMMC-7721 [23], 7.83%; with SMMC-7721 [24], 17.38%. Further, the Activity amounted to 13.92% with SMMC-7721 [25]; 6.05% in the test with SMMC-7721 [26]; 90.4% in the test with SMMC-7721 [28]; 70.87% in the test on SMMC-7721 [30]; 0.053% in the test on SMMC-7721 [32]; 6.24% with SMMC-7721 [33]. For the same compound, the Activity result in the test on SMMC-7721 [34] was “Dose-dependent effect”. Also, the IC50 with SMMC-7721 [1] is 850 nM; in the test with HL-60 it was 660 nM; with A549, 940 nM; in the test with MCF7 [3], 1700 nM; with SW480 [4] it was 250 nM. Besides, the viability at 0.85 µM in the test on SMMC-7721 [6] came to 79.8%. Further, in the test on SW480 [15], the “Ratio IC50” value is 33. Moreover, in the test on SMMC-7721 [27], the viability at 1.7 µM is 43.4%. Further, in the test with SMMC-7721 [29], the viability at 3.4 µM was found to be 2.17%. Besides, in the test on SMMC-7721 [31], the viability at 0.425 µM stood at 80.9%.
